Results: patent US8957087B2, “Heterocyclic substituted acardite derivate and application thereof” (Jiangsu Provincial Institute of Materia Medica Co., Ltd., priority 2009, dated 2015)
Values joined by “and” are separate entries in the source; they are usually repeats but may differ in a detail not shown here. Identical values can stand only once. Like-named read-outs stand apart in the source and are kept apart here. Marks after values point to notes of the source that are not given here.

How the values were obtained:
[1] = tested on: renal carcinoma cell line GCR-1 transplanted tumor; assay type: in vivo, BALB/cA nude mice; settings: BALB/cA nude mice; 60 mg/kg, 6 times every week for 3 weeks; Sorafenib oral 60 mg/kg
Method: 11. Tumor inhibition rate of medicines on renal carcinoma cell line GCR-1 transplanted tumor model in nude mice
(§1) [Test animals] female BALB/cA nude mice, 35-40 days old, with weight of 18-22g. There were 12 mice in the negative conrol group and 6 mice in the treatment group.
[Test method] […] The dosage of the medicine was 60 mg/kg, 6 times every week for 3 weeks. […] Equal amount of normal saline was administrated in the negative control group. Observe for one week after administration.

Raf-1(truncated) = assay: Raf-1 inhibitor screening by chemoluminescence method; assay type: biochemical; settings: Final concentration 1 x 1.0*10^−5 mol/ml
Description: 1. Inhibitory activity of the compound of the present invention on raf kinase
Raf-1 inhibitor screening by chemoluminescence method
Westernblot electrophoresis apparatus Rotaryshaker
Raf-1(truncated), Magnesium/ATP Cocktail, MEK1 unactive

[2] = tested on: human high-metastic lung cancer cell 95D; assay: Inhibition of human high-metastic lung cancer cell 95D migration (Boyden Chamber Transwell); assay type: cell-based; settings: Final concentration 1 x 1.0*10^(−5) mol/L
Method: 5 Inhibition effects of compounds on human high-metastic lung cancer cell 95D migration
[Test materials] Boyden Chamber Transwell chamber (with pore size of 8 μm), human high-metastic lung cancer cell 95D cell strain, 1640 medium containing 10% FBS, 1640 medium containing no serum
(§2) [Tested compound] Compounds 1-38
(§3) [Positive control medicine] Sorafenib, compounds A′, B′, C′ with no substituent or only amino formyl in A ring
(§4) The inhibition rate is calculated as follows: […]

mice S180 sarcoma = assay: Experimental therapeutic action on S180 sarcoma mice; settings: for Tumor growth inhibition rate (%): mice S180 sarcoma, 60 mg/kg orally for 9 days
[3] = tested on: human liver cancer cell bel-7402 transplantation tumor; assay type: in vivo; settings: 60 mg/kg
Method: 10. Tumor inhibition rate of tested compounds on human liver cancer cell bel-7402 transplantation tumor model in nude mice
as §1
(§5) The dosage of the compound was 60 mg/kg, 6 times every week for 3 weeks. […] Equal amount of normal saline was administrated in the negative control group. Observe for one week after administration.

[4] = tested on: Human colon cancer HT-29 transplantable tumor; assay: Human colon cancer HT-29 transplantable tumor in nude mice; settings: for Relative tumor reproduction rate T/C (%): HT-29 in nude mice
[5] = tested on: human umbilical vein endothelial cell HUVEC; assay: Growth of human umbilical vein endothelial cell HUVEC by CCK8 method; assay type: cell-based; settings: Final concentration 1 x 1.0*10^(−5) mol/L
Description: 7. Effects of tested compounds on the growth of human umbilical vein endothelial cell HUVEC cell by CCK8 method
[Test materials] CCK8, human umbilical vein endothelial cell HUVEC cell, 1640 medium containing 10% FBS
(§6) [Tested compound] Compounds 1-38 to be tested
as §3
(§7) Relative OD value of conrol well=OD value of control well−OD value of blank well
(§8) Relative OD value of drug well=OD value of drug well−OD value of blank well

[6] = tested on: human lung cancer cell strain A549; assay: MTT assay, inhibition of growth of human lung cancer cell strain A549; assay type: cell-based
Method: 4. Using 3-(4,5-dimethylthiazol-2-yl)-2,5-diphenyl tetrazolium bromide assay (MTT) to detect the inhibition effects on the growth of human lung cancer cell strain A549
[Test materials] MTT working solution, F12 medium containing 10% FBS, continuous injectors
as §2, §3
The inhibition rate is calculated as follows:
as §7, §8

[7] = tested on: human lung cancer A549 transplantation tumor; assay type: in vivo; settings: BALB/cA nude mice; 60 mg/kg, 6 times every week for 3 weeks; Sorafenib oral 60 mg/kg
Method: 9. Tumor inhibition rate of tested compounds on human lung cancer A549 cell transplantation model in nude mice
as §1, §5

lung cancer cell A549 = assay: Effects on the adhesive ability of lung cancer cell A549; assay type: cell-based, human; settings: Final concentration 1 x 1.0*10^(−5) mol/L
Method: 6. Effects of tested compounds on the adhesive ability of lung cancer cell A549
[Test materials] gelatin, CCK8, poly-lysine (PLL), A549 cell stains, 1640 medium containing 10% FBS
as §6, §3, §4
Dosing dosing cells without cell group (gelatin adhesive OD/PLL adhesion OD)−Dosing cell group (gelatin adhesive OD/PLL adhesion OD value)
Dosing dosing cells without cell group (gelatin adhesive OD/PLL adhesion OD value)

[8] = tested on: human umbilical vein endothelial cell HUVEC; assay: Lumen formation ability of HUVEC (Matrigel method); assay type: cell-based; settings: Final concentration 1 x 1.0*10^(−5) mol/L
Description: 8. Inhibition effects of compounds on the lumen formation ability of human umbilical vein endothelial cell HUVEC
[Experimental principles] The human umbilical vein endothelial cells have ability of spontaneously forming blood lumen on Matrigel, which can be used to simulate the process of angiogenesis in vivo. We used Matrigel method to investigate the effects of the compound on the lumen formation ability of human umbilical vein endothelial cell HUVEC.
[Test materials] HUVEC (taking generation 3 to 5 cells for experiments after obtained from primary separation and cultured at 37 under the conditions of 5% CO2), Matrigel, cell culture medium M199.
as §2, §3, §4

[9] = BALB/cA nude mice, 6 times every week for 3 weeks, Sorafenib oral 60 mg/kg
[10] = Final concentration 1 x 1.0*10^(−5) mol/L

Compound	Relative tumor reproduction rate T/C (%) on human renal carcinoma GCR-1 cell transplanted tumor model in nude mice [1] [%]	Inhibition rate % on raf kinase (Raf-1(truncated)) [%]	Inhibition rate, 95D cell strain migration [2] [%]	Relative tumor reproduction rate T/C (%) on human liver cancer cell bel-7402 transplantation tumor model in nude mice [3, 9] [%]	Inhibition rate, growth of HUVEC cell [5] [%]	Inhibition rate, growth of human lung cancer cell A549 [6, 10] [%]	Relative tumor reproduction rate T/C (%) on human lung cancer A549 transplantation tumor in nude mice [7] [%]	Inhibition rate, adhesion ability of human lung cancer cell A549 (lung cancer cell A549) [%]	Inhibition rate, lumen formation ability of HUVEC [8] [%]	Tumor growth inhibition rate (%) (mice S180 sarcoma)	Relative tumor reproduction rate T/C (%) ([4]; 60 mg/kg ig 9 times)	Inhibition rate, growth of human lung cancer cell A549 [6] [%]	further results
CNC(=O)c1cc(Oc2ccc(NC(=O)Nc3ccc(F)c(C(F)(F)F)c3)cc2)c2cc(OC)ccc2n1 [Compound 2]	23.2	61.1	85.17	35.4	13.11	61.11	35.3	75.15	75.14				Tumor weight x ± SD (mice S180 sarcoma; 60 mg/kg ig for 9 days, day 10): 0.87 ± 0.24 g; Tumor growth inhibition rate (%) (mice S180 sarcoma; 60 mg/kg): 46.0% and 24.1%; Weight (g) Start (mice S180 sarcoma; mouse body weight at start, 60 mg/kg ig): 18.9 ± 1.7 g; Weight (g) Final (mice S180 sarcoma; mouse body weight final, 60 mg/kg ig for 9 days): 20.9 ± 2.3 g; Relative tumor reproduction rate T/C (%) ([4]; 60 mg/kg ig 9 times, 60 mg/kg): 39.45%; Weight (g) d0 ([4]; nude mouse body weight d0, 60 mg/kg): 19.9 ± 0.8 g; Weight (g) d13 ([4]; nude mouse body weight d13, 60 mg/kg ig 9 times): 21.0 ± 0.8 g; RTV ([4]; relative tumor volume, 60 mg/kg ig 9 times): 2.00 ± 0.41; TV d0 ([4]; tumor volume d0, 60 mg/kg): 133 ± 23; TV d13 ([4]; tumor volume d13, 60 mg/kg ig 9 times): 265 ± 100
CNC(=O)c1nc(Oc2ccc(NC(=O)Nc3ccc(F)c(C(F)(F)F)c3)cc2)c2ccc(F)cc2n1 [Compound 5, N-(4-fluoro-3-(trifluoromethyl)phenyl)-N′-(4-(2-(N-methylaminoformoxyl)-4-(7 fluoroquinazolinyl)oxy)phenyl)urea]	11.2	98.9	97.51	15.7	8.50	93.50	11.6	87.58	87.50	49.3	38.24		
CNC(=O)c1nc(Oc2ccc(NC(=O)Nc3ccc(Br)c(C(F)(F)F)c3)cc2)c2ccc(F)cc2n1 [Compound 6, N-(4-bromo-3-(trifluoromethyl)phenyl)-N′-(4-(2-(N-methylaminoformoxyl)-4-(7 fluoroquinazolinyl)oxy)phenyl)urea]	12.5	80.1	93.71	19.5	7.50	92.50	15.9	93.59	90.55	51.2	39.58		
CNC(=O)c1ncc(Oc2ccc(NC(=O)Nc3ccc(Cl)c(C(F)(F)F)c3)cc2)c(OC)n1 [Compound 7, N-(4-chloro-3-(trifluoromethyl)phenyl)-N′-(4-(2-(N-methylaminoformoxyl)-5-(4-methoxypyrimidinyl)oxy)phenyl)urea]	21.2	99.1	89.34	34.2	8.30	45.30	39.3	68.34	60.34	21.5	40.1		
CNC(=O)c1ncc(Oc2ccc(NC(=O)Nc3ccc(F)c(C(F)(F)F)c3)cc2)c(OC)n1 [Compound 8, N-(4-fluoro-3-(trifluoromethyl)phenyl)-N′-(4-(2-(N-methylaminoformoxyl)-5-(4-methoxypyrimidinyl)oxy)phenyl)urea]	29.1		89.56	30.6	13.67	60.67	30.5	61.56	78.59	58.2	37.6		
O=C(Nc1ccc(Oc2ccnc3ccccc23)cc1)Nc1ccc(Cl)c(C(F)(F)F)c1 [Compound A′, reference compound]	34.2		63.51	37.2	23.11		43.2	71.55	60.51			58.51	
O=C(Nc1ccc(Oc2ccncn2)cc1)Nc1ccc(Cl)c(C(F)(F)F)c1 [Compound B′, reference compound]	30.4		61.60		31.64		40.4	69.26	61.62			61.62	Relative tumor reproduction rate T/C (%) on human liver cancer cell bel-7402 transplantation tumor model in nude mice ([3]; mouse, in vivo, po): 30.4%
N-(4-fluoro-3-(trifluoromethyl)phenyl)-N′-(4-(4-pyrryl)oxy)phenyl)urea [Compound C′, reference compound]	35.6		63.20	32.6	22.27		36.6	68.62	60.50			62.25	
